Assay results published in patent US10905700B2, “Chemoprevention of colorectal cancer” (SOFAR SPA, priority 2012, dated 2021).

Legend:
Assay type in all cases: cell-based
[1] = test system: μ-protocadherin, E-cadherin, p21^waf1 and KLF4 messenger expression in CaCo2 cells; assay: QRT-PCR analysis of mRNA of β-catenin signal pathway genes in CaCo2 cells; conditions: CaCo2, 96 hours; 5-ASA 20 mM, ASA 10 mM
Method: (§1) The cell lines CaCo2 and HT29 of colorectal adenocarcinoma obtained from the ATCC (Rockville, Md., USA) were grown in a DMEM culture medium (Euroclone, Devon, UK), to which were added 10% foetal bovine serum (Lonza, Walkersville, Md., USA) inactivated at heat and 1 mM of L-glutamine (Euroclone). The 5-aminosalicylic acid (5-ASA, SOFAR S.p.A., Milan, Italy) and acetylsalicylic acid (ASA, Sigma Aldrich, St Louise, Mo., USA) were dissolved in a culture medium in a concentration of respectively 20 and 10 mM. The vitamin D3 (VD3) (1 alpha, 25 dihydroxyvitamin D3, calcitriol, Sigma Aldrich) was diluted in the culture medium at a concentration of 10^−7 M. For the experiments conducted with the cell line HT29, 300,000 cells were sown for each sample and 5-ASA, vitamin D3 or the combination of 5-ASA and VD3 were added to each well. For the experiments conducted with the cell line CaCo2, on the other hand, 300,000 cells were again sown for each sample, but adding 5-ASA or ASA to each well. The treated cells were then subjected to a cell count every 24 hours to monitor the anti-proliferation effect of the different stimuli. After 96 hours of treatment all the cells were collected, resorbed and the RNA was extracted by means of the “Qiagen total RNA purification kit” following the manufacturer's instructions (Qiagen, Valencia, Calif.). The integrity and concentration of the RNA were tested using the Bio-Analyzer technique (Applied Biosystem, Foster City, Calif.). 100 ng total of RNA were then retrotranscribed using the High Capacity cDNA Archive Kit (Applied Biosystems) on the basis of the instructions provided by the manufacturer. The QRT-PCR was then carried out with an ABI PRISM 7900 (Applied Biosystems) sequence detecting system for quantifying the relative levels of mRNA measured in the various samples. The triggers and probes for amplifying the mRNA of the μ-protocadherin, E-cadherin, p21^waf-1, KLF4 and glyceraldehyde 3-phosphate dehydrogenase (GAPDH) were devised by Applied Biosystems. Each sample of cDNA was processed in triplicate in 50 μl of reaction volume using the Taqman Universal PCR Master Mix (Applied Biosystems). Thermal cyclisation was started with initial denaturation at 50° C. for 2 minutes and at 90° C. for 10 minutes followed by 40 cycles of 15 seconds at 95° C. and 1 minute at 60° C. The QRT-PCR signals were evacuated using the corresponding quantification method ΔΔCt (Livak K J, Schmittgen T D. Relative gene expression data were analysed using real-time quantitative PCR and the 2(-Delta Delta C(T)) Method. Methods 2001; 25(4):402-8). This procedure calculates the relative difference in gene expression of the target gene normalised on the endogen control (GAPDH) and compared with a calibrating sample. The values obtained were expressed as a relative quantity (RQ) of the variation in the messenger levels.
On the samples taken from these cell cultures and from other cultures used as a control, the levels of messenger RNA of the genes listed in the previous paragraph (see FIG. 2) was determined by Quantitative Real Time RT-PCR. The obtained results have shown that the messenger expression of the μ-protocadherin, E-cadherin, p21^waf1 and KLF4 genes were induced respectively 3.8, 2.4, 8.0 and 5.5 times after treatment with 5-ASA 20 mM (FIG. 4), confirming the data previously observed on the cell line HT29. […] This datum is not surprising, considering the redundancy and heterogeneity that characterise molecular regulation of the gene p21^waf1, the expression of which is not only regulated by the proliferation signalling pathway of the β chain, explored in our experimental conditions through the evaluation of the codifying genes for μ-protocadherin, E-cadherin and KLF4, but also by numerous signalling pathways.

[2] = test system: μ-protocadherin, E-cadherin, p21^waf1 and KLF4 messenger expression in HT29 cells; assay: QRT-PCR analysis of mRNA of genes regulating proliferation, differentiation and apoptosis in HT29 cells; conditions: HT29, 96 hours; 5-ASA 20 mM, VD3 10^-7 M, alone or combined; RQ vs calibrator, normalised on GAPDH
Method: The cell lines CaCo2 and HT29 of colorectal adenocarcinoma obtained from the ATCC (Rockville, Md., USA) were grown in a DMEM culture medium (Euroclone, Devon, UK), to which were added 10% foetal bovine serum (Lonza, Walkersville, Md., USA) inactivated at heat and 1 mM of L-glutamine (Euroclone). The 5-aminosalicylic acid (5-ASA, SOFAR S.p.A., Milan, Italy) and acetylsalicylic acid (ASA, Sigma Aldrich, St Louise, Mo., USA) were dissolved in a culture medium in a concentration of respectively 20 and 10 mM. The vitamin D3 (VD3) (1 alpha, 25 dihydroxyvitamin D3, calcitriol, Sigma Aldrich) was diluted in the culture medium at a concentration of 10^-7 M. For the experiments conducted with the cell line HT29, 300,000 cells were sown for each sample and 5-ASA, vitamin D3 or the combination of 5-ASA and VD3 were added to each well. For the experiments conducted with the cell line CaCo2, on the other hand, 300,000 cells were again sown for each sample, but adding 5-ASA or ASA to each well. The treated cells were then subjected to a cell count every 24 hours to monitor the anti-proliferation effect of the different stimuli. After 96 hours of treatment all the cells were collected, resorbed and the RNA was extracted by means of the “Qiagen total RNA purification kit” following the manufacturer's instructions (Qiagen, Valencia, Calif.). The integrity and concentration of the RNA were tested using the Bio-Analyzer technique (Applied Biosystem, Foster City, Calif.). 100 ng total of RNA were then retrotranscribed using the High Capacity cDNA Archive Kit (Applied Biosystems) on the basis of the instructions provided by the manufacturer. The QRT-PCR was then carried out with an ABI PRISM 7900 (Applied Biosystems) sequence detecting system for quantifying the relative levels of mRNA measured in the various samples. The triggers and probes for amplifying the mRNA of the μ-protocadherin, E-cadherin, p21^waf-1, KLF4 and glyceraldehyde 3-phosphate dehydrogenase (GAPDH) were devised by Applied Biosystems. Each sample of cDNA was processed in triplicate in 50 μl of reaction volume using the Taqman Universal PCR Master Mix (Applied Biosystems). Thermal cyclisation was started with initial denaturation at 50° C. for 2 minutes and at 90° C. for 10 minutes followed by 40 cycles of 15 seconds at 95° C. and 1 minute at 60° C. The QRT-PCR signals were evacuated using the corresponding quantification method ΔΔ[…]. Relative gene expression data were analysed using real-time quantitative PCR and the 2(-Delta Delta C(T)) Method. Methods 2001; 25(4):402-8). This procedure calculates the relative difference in gene expression of the target gene normalised on the endogen control (GAPDH) and compared with a calibrating sample. The values obtained were expressed as a relative quantity (RQ) of the variation in the messenger levels. In order to check at the molecular level the effects determined on the cell line HT29 by the association 5-ASA/VD3, “Real Time”, quantitative RT-PCR was used to analyse the expression of a series of genes the protein products of which are involved in the regulation of the proliferation, differentiation and apoptosis of cancer colonocytes such as μ-protocadherin, E-cadherin, p21^waf1 and KLF4. This analysis was conducted on cell cultures subjected to 96 hours of treatment with the studied drugs, which were used in the previously disclosed concentrations.

[3] = test system: colorectal adenocarcinoma cell line CaCo2; assay: Growth curve (cell count) of cell line CaCo2 treated with 5-ASA and ASA; conditions: CaCo2, 96 hours; for cellularity "fold change" value / mortality / survival of treated cells: concentration of 20 mM of the analysed drugs
Method: as §1
In order to characterise further the profile of efficacy and safety associated with the chemopreventive properties of 5-ASA, a series of experiments was conducted of the same type as the series explained previously, in which a comparative analysis was conducted of the biological effects determined on cancer colonocytes following treatment with 5-ASA and with aspirin (ASA), i.e. the main drug of the family of NSAIDs. […]

[4] = test system: colorectal adenocarcinoma cell line HT29; assay: Growth curve (cell count every 24 hours) of cell line HT29; conditions: HT29, 96 hours of stimulation; 5-ASA 20 mM, VD3 10^-7 M, alone or combined; control 14 expansions
Method: The cell lines CaCo2 and HT29 of colorectal adenocarcinoma obtained from the ATCC (Rockville, Md., USA) were grown in a DMEM culture medium (Euroclone, Devon, UK), to which were added 10% foetal bovine serum (Lonza, Walkersville, Md., USA) inactivated at heat and 1 mM of L-glutamine (Euroclone). The 5-aminosalicylic acid (5-ASA, SOFAR S.p.A., Milan, Italy) and acetylsalicylic acid (ASA, Sigma Aldrich, St Louise, Mo., USA) were dissolved in a culture medium in a concentration of respectively 20 and 10 mM. […] The QRT-PCR was then carried out with an ABI PRISM 7900 (Applied Biosystems) sequence detecting system for quantifying the relative levels of mRNA measured in the various samples. […] The QRT-PCR signals were evacuated using the corresponding quantification method ΔΔ[…]. Relative gene expression data were analysed using real-time quantitative PCR and the 2(-Delta Delta C(T)) Method. […] The values obtained were expressed as a relative quantity (RQ) of the variation in the messenger levels. The colorectal adenocarcinoma cell line HT29, which was chosen for its responsiveness to the VD3 deriving from the corresponding VDR receptor, was subjected to “in vitro” treatment with 5-ASA 20 mM and VD3 10^-7 M, used individually and in association, in order to quantify the antiproliferative effect determined by the compounds analysed on cancerous colonocytes. […]

SMILES	induction of messenger expression of E-cadherin [1]	induction of messenger expression of KLF4 [1]	induction of messenger expression of p21^waf1 [1]	induction of messenger expression of μ-protocadherin [1]	increase in messenger expression of E-cadherin [2]	increase in messenger expression of KLF-4 [2]	increase in messenger expression of p21 [2]	increase in messenger expression of μ-protocadherin [2]	cellularity "fold change" value [3]	mortality / survival of treated cells [3]	number of cell expansions compared with the initial number of cells [4]	antiproliferative effect of ASA 10 mM compared with 5-ASA 20 mM ([3]; 10 mM ASA vs 20 mM 5-ASA (equivalents))
Nc1ccc(O)c(C(=O)O)c1 [5-ASA, 5-aminosalicylic acid]	2.4 times	5.5 times	8.0 times	3.8 times	2.2 times	2.2 times	2.9 times	2.5 times	1	all the cells treated with 5-ASA survive	8 expansions	–
CC(=O)Oc1ccccc1C(=O)O [ASA, acetylsalicylic acid]	does not, on the other hand, induce	does not, on the other hand, induce	5.8 times	does not, on the other hand, induce	–	–	–	–	0.2	80%	–	absolutely superimposable antiproliferative effect
C=C1/C(=C\C=C2/CCC[C@]3(C)[C@@H]([C@H](C)CCCC(C)(C)O)CC[C@@H]23)C[C@@H](O)C[C@@H]1O [VD3, 1 alpha, 25 dihydroxyvitamin D3]	–	–	–	–	1.7 times	1.6 times	1.5 times	1 times	–	–	10 expansions	–
